Laboratory results reported in patent US7429660B2, “ATM inhibitors” (Kudos Pharmaceuticals Limited, priority 2003, dated 2008).

Target: T1, ATM protein immunoprecipitated from HeLa cell nuclear extract (Homo sapiens, UniProt Q13315)
T1 construct: ATM protein was immunoprecipitated from HeLa cell nuclear extract; endogenous in cells; host or cells: HeLa cell nuclear extract (immunoprecipitated with rabbit polyclonal anti-ATM antiserum)
Assay: In vitro ATM inhibition assay (phosphorylation of GSTp53N66 on serine 15, chemiluminescent detection); further: tested normally from 100 µM down to 0.1 nM
Type: biochemical
Settings: read-out: IC50 values (the concentration at which 50% of the enzyme activity is inhibited), ATM inhibition
Method: In order to assess the inhibitory action of the compounds against ATM in vitro, the following assay was used to determine IC50 values. ATM protein was immunoprecipitated from HeLa cell nuclear extract using rabbit polyclonal anti-sera raised to the C-terminal ˜500 amino-acid residues of the human ATM protein. […] 10 μl of immunoprecipitated ATM in Buffer C (50 mM Hepes, pH 7.4, 6 mM MgCl2, 150 mM NaCl, 0.1 mM sodium orthovanadate, 4 mM MnCl2, 0.1 mM dithiothreitol, 10% glycerol) was added to 32.5 μl of buffer C containing 1 μg of the ATM substrate GSTp53N66 in a V-bottomed 96 well polypropylene plate. The GSTp53N66 substrate is the amino terminal 66 amino acid residues of human wild type p53 fused to glutathione S-transferase. […] Varying concentrations of inhibitor were then added. […] After 10 minutes of incubation at 37° C., the reactions were initiated by the addition of 5 μl of 500 μM Na-ATP. After 1 hour with shaking at 37° C., 150 μl of phosphate buffered saline (PBS) was added to the reaction and the plate centrifuged at 1500 rpm for 10 minutes. 5 μl of the reaction was then transferred to a 96 well opaque white plate containing 45 μl of PBS to allow the GSTp53N66 substrate to bind to the plate wells. The plate was covered and incubated at room temperature for 1 hour with shaking before discarding the contents. The plate wells were washed twice by the addition of PBS prior to the addition of 3% (w/v) bovine serum albumin (BSA) in PBS. The plate was incubated at room temperature for 1 hour with shaking before discarding the contents and washing twice with PBS. To the wells, 50 μl of a 1:10,000 dilution of primary phosphoserine-15 antibody (Cell Signaling Technology, #9284L) in 3% BSA/PBS was added to detect the phosphorylation event on the serine 15 residue of p53 elicited by the ATM kinase. […] The wells were then washed four times with PBS before the addition of chemiluminescence reagent (NEN Renaissance, NEL105). The plate was then shaken briefly, covered with a transparent plate seal and transferred to a TopCount NXT for chemiluminescent counting. Counts per second, following a one second counting time, were recorded for each reaction.
The enzyme activity for each compound is then calculated using the following equation:
[formula] Results In vitro ATM assays
Compounds were assayed for ATM inhibition activity using the method described above. […] These are determined over a range of different concentrations, normally from 100 μM down to 0.1 nM. Such IC50 values are used as comparative values to identify increased compound potencies.

T1 sequence (Q13315 whole entry): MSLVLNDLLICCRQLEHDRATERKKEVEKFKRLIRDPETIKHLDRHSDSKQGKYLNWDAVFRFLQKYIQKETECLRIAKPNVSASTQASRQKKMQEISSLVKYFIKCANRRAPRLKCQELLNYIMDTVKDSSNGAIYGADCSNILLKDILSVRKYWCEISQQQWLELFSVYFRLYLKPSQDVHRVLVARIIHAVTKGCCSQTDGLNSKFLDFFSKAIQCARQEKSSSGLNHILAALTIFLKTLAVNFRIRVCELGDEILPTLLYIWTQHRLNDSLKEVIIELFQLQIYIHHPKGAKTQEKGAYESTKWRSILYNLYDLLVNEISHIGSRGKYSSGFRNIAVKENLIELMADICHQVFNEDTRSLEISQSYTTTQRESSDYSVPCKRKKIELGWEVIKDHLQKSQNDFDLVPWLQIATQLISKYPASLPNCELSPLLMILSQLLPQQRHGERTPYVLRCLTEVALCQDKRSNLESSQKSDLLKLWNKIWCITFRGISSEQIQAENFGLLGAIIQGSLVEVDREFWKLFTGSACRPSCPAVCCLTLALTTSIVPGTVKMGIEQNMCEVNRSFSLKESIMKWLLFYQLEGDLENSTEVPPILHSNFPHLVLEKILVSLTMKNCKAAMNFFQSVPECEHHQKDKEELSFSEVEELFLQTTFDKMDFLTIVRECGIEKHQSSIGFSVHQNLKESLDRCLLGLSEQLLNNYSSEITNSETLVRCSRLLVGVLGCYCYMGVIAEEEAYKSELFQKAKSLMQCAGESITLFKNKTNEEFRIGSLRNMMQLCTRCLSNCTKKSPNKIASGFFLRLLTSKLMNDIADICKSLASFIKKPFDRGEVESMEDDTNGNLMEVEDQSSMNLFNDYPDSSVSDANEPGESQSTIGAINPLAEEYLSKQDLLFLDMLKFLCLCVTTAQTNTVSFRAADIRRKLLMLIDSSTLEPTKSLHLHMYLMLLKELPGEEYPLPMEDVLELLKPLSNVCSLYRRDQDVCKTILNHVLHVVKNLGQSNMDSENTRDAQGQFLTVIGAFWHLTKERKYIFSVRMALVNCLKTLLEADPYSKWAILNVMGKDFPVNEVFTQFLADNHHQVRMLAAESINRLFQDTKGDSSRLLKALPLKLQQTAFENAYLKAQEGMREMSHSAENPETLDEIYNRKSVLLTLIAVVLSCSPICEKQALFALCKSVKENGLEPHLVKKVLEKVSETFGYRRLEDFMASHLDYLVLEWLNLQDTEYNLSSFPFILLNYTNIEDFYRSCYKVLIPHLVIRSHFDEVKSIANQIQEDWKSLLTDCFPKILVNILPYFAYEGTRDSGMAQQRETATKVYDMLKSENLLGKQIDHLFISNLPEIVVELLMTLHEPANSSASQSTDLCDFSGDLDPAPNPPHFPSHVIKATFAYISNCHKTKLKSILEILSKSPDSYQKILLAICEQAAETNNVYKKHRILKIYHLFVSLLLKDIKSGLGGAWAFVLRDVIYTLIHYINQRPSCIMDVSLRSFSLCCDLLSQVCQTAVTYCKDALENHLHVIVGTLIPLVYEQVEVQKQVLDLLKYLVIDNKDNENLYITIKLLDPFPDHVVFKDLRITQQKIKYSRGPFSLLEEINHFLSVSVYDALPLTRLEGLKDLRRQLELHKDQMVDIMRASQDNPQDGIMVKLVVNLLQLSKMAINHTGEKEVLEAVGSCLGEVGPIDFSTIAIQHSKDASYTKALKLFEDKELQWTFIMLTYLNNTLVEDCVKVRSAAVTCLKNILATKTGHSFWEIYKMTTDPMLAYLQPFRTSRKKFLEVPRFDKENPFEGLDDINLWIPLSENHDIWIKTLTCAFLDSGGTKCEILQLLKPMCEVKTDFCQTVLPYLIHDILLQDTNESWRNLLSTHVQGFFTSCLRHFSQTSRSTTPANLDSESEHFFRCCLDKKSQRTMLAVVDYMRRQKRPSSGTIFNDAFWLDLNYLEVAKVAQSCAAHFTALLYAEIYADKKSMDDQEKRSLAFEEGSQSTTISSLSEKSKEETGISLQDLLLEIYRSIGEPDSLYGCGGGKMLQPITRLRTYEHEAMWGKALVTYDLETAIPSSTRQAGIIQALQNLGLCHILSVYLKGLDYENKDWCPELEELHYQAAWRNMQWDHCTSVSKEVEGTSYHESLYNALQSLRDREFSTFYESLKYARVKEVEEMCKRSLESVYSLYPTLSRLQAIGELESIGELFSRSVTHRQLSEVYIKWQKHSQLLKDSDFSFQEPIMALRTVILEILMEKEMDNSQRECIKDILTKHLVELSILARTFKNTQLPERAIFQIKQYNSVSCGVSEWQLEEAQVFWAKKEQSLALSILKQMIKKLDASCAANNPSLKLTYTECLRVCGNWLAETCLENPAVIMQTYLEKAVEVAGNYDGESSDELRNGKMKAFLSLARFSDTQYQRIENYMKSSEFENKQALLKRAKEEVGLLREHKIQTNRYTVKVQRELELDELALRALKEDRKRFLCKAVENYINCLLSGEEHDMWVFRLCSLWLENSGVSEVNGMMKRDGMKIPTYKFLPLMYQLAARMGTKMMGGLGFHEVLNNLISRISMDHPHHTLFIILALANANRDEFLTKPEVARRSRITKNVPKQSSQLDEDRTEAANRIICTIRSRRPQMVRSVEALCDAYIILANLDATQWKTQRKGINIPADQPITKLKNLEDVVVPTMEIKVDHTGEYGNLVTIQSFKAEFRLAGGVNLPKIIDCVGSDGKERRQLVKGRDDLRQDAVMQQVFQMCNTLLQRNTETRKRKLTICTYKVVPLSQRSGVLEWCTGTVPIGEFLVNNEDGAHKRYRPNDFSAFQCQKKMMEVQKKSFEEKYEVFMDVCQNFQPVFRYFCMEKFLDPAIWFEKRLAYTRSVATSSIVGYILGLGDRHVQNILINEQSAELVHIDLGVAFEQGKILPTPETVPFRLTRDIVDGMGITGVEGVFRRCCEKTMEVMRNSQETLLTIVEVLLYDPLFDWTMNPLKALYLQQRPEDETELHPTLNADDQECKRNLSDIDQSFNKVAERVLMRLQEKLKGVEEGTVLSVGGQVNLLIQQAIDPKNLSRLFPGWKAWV

IC50 [nM] | Compound
< 200 | O=C(CN1CCN(CCOCCO)CC1)Nc1ccc2c(c1)Sc1cccc(-c3cc(=O)cc(N4CCOCC4)o3)c1S2 [Compound 79]
< 200 | CC(C)N1CCN(CC(=O)Nc2ccc3c(c2)Sc2cccc(-c4cc(=O)cc(N5CCOCC5)o4)c2S3)CC1 [Compound 80]
< 200 | CCN1CCN(CC(=O)Nc2ccc3c(c2)Sc2cccc(-c4cc(=O)cc(N5CCOCC5)o4)c2S3)CC1 [Compound 81]
< 200 | O=C(CN1CCN(c2ccccn2)CC1)Nc1ccc2c(c1)Sc1cccc(-c3cc(=O)cc(N4CCOCC4)o3)c1S2 [Compound 82]
< 200 | O=C(CN1CCN(c2ccc(F)cc2)CC1)Nc1ccc2c(c1)Sc1cccc(-c3cc(=O)cc(N4CCOCC4)o3)c1S2 [Compound 83]
< 200 | O=C(CN1CCN(c2ncccn2)CC1)Nc1ccc2c(c1)Sc1cccc(-c3cc(=O)cc(N4CCOCC4)o3)c1S2 [Compound 84]
< 200 | CC(C)NC(=O)CN1CCN(CC(=O)Nc2ccc3c(c2)Sc2cccc(-c4cc(=O)cc(N5CCOCC5)o4)c2S3)CC1 [Compound 85]
< 200 | CN(C)CCN1CCN(CC(=O)Nc2ccc3c(c2)Sc2cccc(-c4cc(=O)cc(N5CCOCC5)o4)c2S3)CC1 [Compound 86]
< 200 | CCN1CCCC1CNCC(=O)Nc1ccc2c(c1)Sc1cccc(-c3cc(=O)cc(N4CCOCC4)o3)c1S2 (stereo not drawn) [Compound 87]
< 200 | O=C(CNCCN1CCCCC1)Nc1ccc2c(c1)Sc1cccc(-c3cc(=O)cc(N4CCOCC4)o3)c1S2 [Compound 88]
< 200 | O=C(CCN1CCOCC1)Nc1ccc2c(c1)Sc1cccc(-c3cc(=O)cc(N4CCOCC4)o3)c1S2 [Compound 91]
< 200 | O=C(CCN1CCCCC1)Nc1ccc2c(c1)Sc1cccc(-c3cc(=O)cc(N4CCOCC4)o3)c1S2 [Compound 92]
< 200 | CN1CCN(CCC(=O)Nc2ccc3c(c2)Sc2cccc(-c4cc(=O)cc(N5CCOCC5)o4)c2S3)CC1 [Compound 94]
< 200 | O=C(CCNCCO)Nc1ccc2c(c1)Sc1cccc(-c3cc(=O)cc(N4CCOCC4)o3)c1S2 [Compound 96]
< 200 | NCCNCCC(=O)Nc1ccc2c(c1)Sc1cccc(-c3cc(=O)cc(N4CCOCC4)o3)c1S2 [Compound 97]
< 200 | O=C(CCN1CCCC1)Nc1ccc2c(c1)Sc1cccc(-c3cc(=O)cc(N4CCOCC4)o3)c1S2 [Compound 98]
< 200 | CN1CCCN(CCC(=O)Nc2ccc3c(c2)Sc2cccc(-c4cc(=O)cc(N5CCOCC5)o4)c2S3)CC1 [Compound 99]
< 200 | O=C(CCN1CCCNCC1)Nc1ccc2c(c1)Sc1cccc(-c3cc(=O)cc(N4CCOCC4)o3)c1S2 [Compound 100]
< 200 | O=C(CCN1CCCCCC1)Nc1ccc2c(c1)Sc1cccc(-c3cc(=O)cc(N4CCOCC4)o3)c1S2 [Compound 101]

IC50 [nM] | Compound
< 200 | O=C(CCNCCCN1CCOCC1)Nc1ccc2c(c1)Sc1cccc(-c3cc(=O)cc(N4CCOCC4)o3)c1S2 [Compound 102]
< 200 | COc1ccc(CNCCC(=O)Nc2ccc3c(c2)Sc2cccc(-c4cc(=O)cc(N5CCOCC5)o4)c2S3)cc1 [Compound 103]
< 200 | O=C(CCSc1ncn[nH]1)Nc1ccc2c(c1)Sc1cccc(-c3cc(=O)cc(N4CCOCC4)o3)c1S2 [Compound 104]
< 200 | CCN(CC)CCC(=O)Nc1ccc2c(c1)Sc1cccc(-c3cc(=O)cc(N4CCOCC4)o3)c1S2 [Compound 105]
< 200 | O=C(CCNCC1CCCO1)Nc1ccc2c(c1)Sc1cccc(-c3cc(=O)cc(N4CCOCC4)o3)c1S2 (stereo not drawn) [Compound 107]
< 200 | CN(C)CCC(=O)Nc1ccc2c(c1)Sc1cccc(-c3cc(=O)cc(N4CCOCC4)o3)c1S2 [Compound 108]
< 200 | C[C@@H]1CN(CCC(=O)Nc2ccc3c(c2)Sc2cccc(-c4cc(=O)cc(N5CCOCC5)o4)c2S3)C[C@H](C)O1 [Compound 109]
< 200 | O=C(CCNCc1ccncc1)Nc1ccc2c(c1)Sc1cccc(-c3cc(=O)cc(N4CCOCC4)o3)c1S2 [Compound 110]
< 200 | CCN(CCC(=O)Nc1ccc2c(c1)Sc1cccc(-c3cc(=O)cc(N4CCOCC4)o3)c1S2)Cc1ccccc1 [Compound 111]
< 200 | CN(C)CCN(C)CCC(=O)Nc1ccc2c(c1)Sc1cccc(-c3cc(=O)cc(N4CCOCC4)o3)c1S2 [Compound 112]
< 200 | O=C(CCNCCN1CCNC1=O)Nc1ccc2c(c1)Sc1cccc(-c3cc(=O)cc(N4CCOCC4)o3)c1S2 [Compound 113]
< 200 | CN1CCCC1CCNCCC(=O)Nc1ccc2c(c1)Sc1cccc(-c3cc(=O)cc(N4CCOCC4)o3)c1S2 (stereo not drawn) [Compound 114]
< 200 | CC(=O)N1CCN(CCC(=O)Nc2ccc3c(c2)Sc2cccc(-c4cc(=O)cc(N5CCOCC5)o4)c2S3)CC1 [Compound 116]
< 200 | O=C(CCN1CCN(CCOCCO)CC1)Nc1ccc2c(c1)Sc1cccc(-c3cc(=O)cc(N4CCOCC4)o3)c1S2 [Compound 117]
< 200 | CC(C)N1CCN(CCC(=O)Nc2ccc3c(c2)Sc2cccc(-c4cc(=O)cc(N5CCOCC5)o4)c2S3)CC1 [Compound 118]
< 200 | CCN1CCN(CCC(=O)Nc2ccc3c(c2)Sc2cccc(-c4cc(=O)cc(N5CCOCC5)o4)c2S3)CC1 [Compound 119]
< 200 | O=C(CCN1CCN(c2ccccn2)CC1)Nc1ccc2c(c1)Sc1cccc(-c3cc(=O)cc(N4CCOCC4)o3)c1S2 [Compound 120]
< 200 | O=C(CCN1CCN(c2ccc(F)cc2)CC1)Nc1ccc2c(c1)Sc1cccc(-c3cc(=O)cc(N4CCOCC4)o3)c1S2 [Compound 121]
< 200 | CC(C)NC(=O)CN1CCN(CCC(=O)Nc2ccc3c(c2)Sc2cccc(-c4cc(=O)cc(N5CCOCC5)o4)c2S3)CC1 [Compound 123]

IC50 [nM] | Compound
< 200 | CN(C)CCN1CCN(CCC(=O)Nc2ccc3c(c2)Sc2cccc(-c4cc(=O)cc(N5CCOCC5)o4)c2S3)CC1 [Compound 124]
< 200 | NC(=O)CNCCC(=O)Nc1ccc2c(c1)Sc1cccc(-c3cc(=O)cc(N4CCOCC4)o3)c1S2 [Compound 125]
< 200 | CCN1CCCC1CNCCC(=O)Nc1ccc2c(c1)Sc1cccc(-c3cc(=O)cc(N4CCOCC4)o3)c1S2 (stereo not drawn) [Compound 126]
< 200 | O=C(CCNCCN1CCCCC1)Nc1ccc2c(c1)Sc1cccc(-c3cc(=O)cc(N4CCOCC4)o3)c1S2 [Compound 127]
< 200 | O=C(CCN1CCN(CCO)CC1)Nc1ccc2c(c1)Sc1cccc(-c3cc(=O)cc(N4CCOCC4)o3)c1S2 [Compound 128]
< 200 | O=C(CCN1CCCN(CCO)CC1)Nc1ccc2c(c1)Sc1cccc(-c3cc(=O)cc(N4CCOCC4)o3)c1S2 [Compound 129]
< 200 | O=c1cc(-c2ccc(OCCN3CCCCCC3)c3c2Sc2ccccc2S3)oc(N2CCOCC2)c1 [Compound 148]
< 200 | O=c1cc(-c2ccc(OCCNN3CCOCC3)c3c2Sc2ccccc2S3)oc(N2CCOCC2)c1 [Compound 153]
< 200 | O=c1cc(-c2ccc(OCCNCCN3CCN(Cc4ccccc4)CC3)c3c2Sc2ccccc2S3)oc(N2CCOCC2)c1 [Compound 164]
< 200 | CN(C)Cc1ccc(CSCCNCCOc2ccc(-c3cc(=O)cc(N4CCOCC4)o3)c3c2Sc2ccccc2S3)o1 [Compound 170]
< 200 | CCNCCCOc1ccc(-c2cc(=O)cc(N3CCOCC3)o2)c2c1Sc1ccccc1S2 [Compound 172]
< 200 | C[C@@H]1COC[C@H](C)N1CCCOc1ccc(-c2cc(=O)cc(N3CCOCC3)o2)c2c1Sc1ccccc1S2 [Compound 181]
< 200 | O=c1cc(-c2ccc(OCCCNC3CCC3)c3c2Sc2ccccc2S3)oc(N2CCOCC2)c1 [Compound 182]
< 200 | CC(C)N(CCNCCCOc1ccc(-c2cc(=O)cc(N3CCOCC3)o2)c2c1Sc1ccccc1S2)C(C)C [Compound 200]
< 200 | O=c1cc(-c2cccc3c2Sc2ccccc2N3CCCNCC2CCCO2)oc(N2CCOCC2)c1 (stereo not drawn) [Compound 240]
< 200 | CC(C)CNCCCN1c2ccccc2Sc2c(-c3cc(=O)cc(N4CCOCC4)o3)cccc21 [Compound 242]
< 200 | CCN(CC)CCCN1c2ccccc2Sc2c(-c3cc(=O)cc(N4CCOCC4)o3)cccc21 [Compound 244]
< 200 | CCCCNCCCN1c2ccccc2Sc2c(-c3cc(=O)cc(N4CCOCC4)o3)cccc21 [Compound 245]
< 200 | O=c1cc(-c2cccc3c2Sc2ccccc2N3CCCNC2CCCCC2)oc(N2CCOCC2)c1 [Compound 251]
